PubChem BioAssay AID1259246 (Broad Institute, 2017)
Values joined by “and” are separate entries in the source; they are usually repeats but may differ in a detail not shown here. Equal entries are not always repeated. Results filed as inconclusive are left out. Active and inactive are the calls of the source.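 Rule for the calls: active = valid dose-response fit whose half-maximal growth-inhibiting concentration is at or below a set limit above the top tested dose; inconclusive = flat fit with effect between 30 and 70%, or poor fit; inactive = half-maximal concentration above a set limit.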

Test: antibacterial activity against Clostridioides difficile – 10-point retest, dose response (AID 1259246)
Conditions: Clostridioides difficile clinical isolate growth, OD600, 24 h

SMILES	activity change, negative = inhibition (at 120 µM (top of the series))	other results
C[C@@H]1CN([C@@H](C)CO)C(=O)c2ccccc2-c2ccccc2CO[C@@H]1CN(C)S(=O)(=O)c1ccc([N+](=O)[O-])cc1	35.2% (inactive)	–
CNC[C@H]1Oc2c(N)cccc2C(=O)N([C@H](C)CO)C[C@@H]1C	–	activity change, negative = inhibition (at 135 µM (top of the series)): -1.95% (inactive)
CNC[C@@H]1Oc2ccc(NC(=O)CCCN(C)C)cc2CC(=O)N([C@@H](C)CO)C[C@H]1C	-5.36% (inactive)	–
C[C@@H]1CN([C@H](C)CO)S(=O)(=O)c2ccc(C#CC3CCCCC3)cc2O[C@@H]1CN(C)Cc1cccnc1	20.4% (inactive)	–
C[C@H]1CN([C@@H](C)CO)S(=O)(=O)c2ccc(Br)cc2O[C@@H]1CN(C)Cc1cccnc1	-0.003% (inactive)	–
C[C@@H]1CN([C@H](C)CO)C(=O)c2cccc(NC(=O)Nc3ccc(C(F)(F)F)cc3)c2O[C@H]1CN(C)Cc1ccncc1	56.1% (inactive)	–
C[C@@H]1CN([C@H](C)CO)C(=O)Cc2cc(NC(=O)C3CC3)ccc2O[C@@H]1CN(C)Cc1ccccc1	-3.71% (inactive)	–
O=S(=O)(Cc1ccccc1)NCC[C@H]1CC[C@H](NS(=O)(=O)c2ccccc2)[C@H](CO)O1	-7.57% (inactive)	–
C[C@H](CO)N1C[C@H](C)[C@@H](CN(C)Cc2ccc3c(c2)OCO3)Oc2c(NC(=O)Nc3ccc(C(F)(F)F)cc3)cccc2C1=O	28.9% (inactive)	–
CC(C)C#Cc1ccc2c(c1)O[C@H](CN(C)CC1CCOCC1)[C@H](C)CN([C@@H](C)CO)S2(=O)=O	4.6% (inactive)	–
C/C=C/c1ccc2c(c1)O[C@H](CN(C)Cc1ccc(F)cc1)[C@H](C)CN([C@@H](C)CO)S2(=O)=O	7.75% (inactive)	–
N#C[C@@H]1[C@@H](c2ccc(C#Cc3cccnc3)cc2)[C@@H](CO)N1C(=O)C1CCCCC1	–	activity change, negative = inhibition (at 60 µM (top of the series)): 1.92% (inactive)
O=C(C[C@H]1C[C@@H]2c3cc(NC(=O)C4CCC4)ccc3O[C@@H]2[C@@H](CO)O1)NCc1ccccc1	–	activity change, negative = inhibition (at 60 µM (top of the series)): 6.59% (inactive)
Cc1ccc(S(=O)(=O)N[C@H]2CC[C@H](CCNC(=O)c3ccc4c(c3)OCO4)O[C@H]2CO)cc1	-3.6% (inactive)	–
O=C(C[C@H]1C[C@@H]2c3cc(NS(=O)(=O)c4ccc(F)cc4)ccc3O[C@@H]2[C@@H](CO)O1)NCc1ccc(Cl)cc1	–	activity change, negative = inhibition (at 68 µM (top of the series)): 8.4% (inactive)
COc1ccccc1-c1ccc2c(c1)O[C@H](CN(C)Cc1ccc3c(c1)OCO3)[C@H](C)CN([C@@H](C)CO)S2(=O)=O	31.6% (inactive)	–
C[C@H]1CN([C@@H](C)CO)C(=O)Cc2cc(NC(=O)CCCN(C)C)ccc2O[C@@H]1CN(C)Cc1ccc(-c2ccccc2)cc1	–	activity change, negative = inhibition (at 135 µM (top of the series)): -3.4% (inactive)
COc1ccc(-c2ccc([C@H]3[C@H](C#N)N[C@H]3CO)cc2)cc1	-2.73% (inactive)	–
C[C@H](CO)N1C[C@H](C)[C@H](CN(C)C(=O)NC2CCCCC2)Oc2c(NC(=O)Nc3ccc(C(F)(F)F)cc3)cccc2C1=O	32.2% (inactive)	–
C[C@@H]1CN([C@H](C)CO)S(=O)(=O)c2ccc(/C=C/c3ccccc3)cc2O[C@H]1CN(C)Cc1ccccc1	–	activity change, negative = inhibition (at 60 µM (top of the series)): 2.59% (inactive)
C[C@@H]1CN([C@@H](C)CO)C(=O)Cc2cc(NC(=O)CCC(F)(F)F)ccc2O[C@H]1CN(C)Cc1ccc(-c2ccccc2)cc1	37.3% (inactive)	–
COc1ccccc1CNC(=O)C[C@H]1C[C@H]2c3cc(NC(=O)NC4CCCC4)ccc3O[C@H]2[C@@H](CO)O1	–	activity change, negative = inhibition (at 135 µM (top of the series)): 4.17% (inactive)

SMILES	activity change, negative = inhibition (at 120 µM (top of the series))	other results
CNC[C@H]1Oc2c(NC(=O)Nc3ccc(F)cc3)cccc2C(=O)N([C@H](C)CO)C[C@@H]1C	–	activity change, negative = inhibition (at 135 µM (top of the series)): 0.222% (inactive)
CO[C@@H]1CN(C)C(=O)c2cc(NC(=O)c3nc4ccccc4s3)ccc2OC[C@H](C)N(Cc2ccncc2)C[C@H]1C	–	activity change, negative = inhibition (at 135 µM (top of the series)): 7% (inactive)
C[C@@H]1CCCCO[C@@H](CN(C)S(=O)(=O)c2ccc(F)cc2)[C@@H](C)CN([C@@H](C)CO)C(=O)c2cc(NC(=O)Nc3cccc4ccccc34)ccc2O1	12.1% (inactive)	–
C[C@@H]1CN([C@H](C)CO)C(=O)Cc2cc(NC(=O)c3ccncc3)ccc2O[C@@H]1CN(C)Cc1ccc(-c2ccccc2)cc1	–	activity change, negative = inhibition (at 135 µM (top of the series)): 20.6% (inactive)
O=C(C[C@@H]1C[C@@H]2c3cc(NC(=O)Nc4ccc(F)cc4)ccc3O[C@@H]2[C@H](CO)O1)NC1CCCCC1	-4.54% (inactive)	–
CO[C@@H]1CN(C)C(=O)c2cc(NC(=O)c3nc4ccccc4s3)ccc2OC[C@@H](C)N(Cc2ccncc2)C[C@H]1C	–	activity change, negative = inhibition (at 135 µM (top of the series)): 14.2% (inactive)
CC(C)CC#Cc1ccc2c(c1)O[C@H](CN(C)Cc1ccc(F)cc1)[C@H](C)CN([C@H](C)CO)S2(=O)=O	28% (inactive) and 85.7% (inactive)	–
O=C(C[C@H]1C[C@@H]2c3cc(NC(=O)C4CCC4)ccc3O[C@@H]2[C@@H](CO)O1)NCCN1CCCCC1	–	activity change, negative = inhibition (at 68 µM (top of the series)): -0.905% (inactive)
C[C@@H]1CN([C@@H](C)CO)C(=O)Cc2cc(NC(=O)C3CC3)ccc2O[C@@H]1CN(C)Cc1ccc(C(F)(F)F)cc1	21.2% (inactive)	–
CNC[C@H]1Oc2cc(Br)ccc2S(=O)(=O)N([C@@H](C)CO)C[C@H]1C	5.27% (inactive)	–
CC(C)CC#Cc1ccc2c(c1)O[C@@H](CN(C)Cc1ccccc1)[C@H](C)CN([C@@H](C)CO)S2(=O)=O	32.1% (inactive)	–
COc1ccc(S(=O)(=O)Nc2cccc3c2O[C@@H](CN(C)S(=O)(=O)c2c(C)noc2C)[C@H](C)CN([C@H](C)CO)C3=O)cc1	-3.81% (inactive)	–
COc1ccccc1CNC(=O)C[C@H]1C[C@@H]2c3cc(NC(=O)C4CCC4)ccc3O[C@@H]2[C@@H](CO)O1	–	activity change, negative = inhibition (at 60 µM (top of the series)): 2.54% (inactive)
C[C@@H]1CN([C@@H](C)CO)S(=O)(=O)c2ccc(C#Cc3ccccc3F)cc2O[C@@H]1CN(C)CC1CCOCC1	–	activity change, negative = inhibition (at 60 µM (top of the series)): 3.46% (inactive)
C[C@@H]1CCCCO[C@@H](CN(C)S(=O)(=O)c2ccc(F)cc2)[C@H](C)CN([C@H](C)CO)C(=O)c2cc(NC(=O)Nc3cccc4ccccc34)ccc2O1	34.2% (inactive)	–
C[C@H]1CN([C@@H](C)CO)C(=O)Cc2cc(NC(=O)CCCN(C)C)ccc2O[C@H]1CN(C)Cc1ccc(Oc2ccccc2)cc1	–	activity change, negative = inhibition (at 135 µM (top of the series)): 10.5% (inactive)
CO[C@H]1CN(C)C(=O)c2cc(NS(=O)(=O)c3ccc(-c4ccccc4)cc3)ccc2OC[C@H](C)NC[C@H]1C	–	activity change, negative = inhibition (at 135 µM (top of the series)): 10.6% (inactive)
C[C@@H]1CN([C@H](C)CO)C(=O)Cc2cc(NC(=O)C3CC3)ccc2O[C@@H]1CN(C)Cc1ccc(Cl)c(Cl)c1	27.9% (inactive)	–
C[C@@H]1CN([C@@H](C)CO)C(=O)Cc2cc(NC(=O)Nc3ccccc3)ccc2O[C@@H]1CN(C)Cc1ccc(-c2ccccc2)cc1	–	activity change, negative = inhibition (at 135 µM (top of the series)): 23.5% (inactive)
C[C@@H]1CN([C@@H](C)CO)C(=O)c2cc(NC(=O)NC3CCCCC3)ccc2O[C@@H]1CN(C)C(=O)Nc1ccc(F)cc1	58.5% (inactive)	–
C[C@@H]1CN([C@H](C)CO)C(=O)c2cccc(NC(=O)Nc3ccc(C(F)(F)F)cc3)c2O[C@H]1CN(C)C(=O)NC1CCCCC1	28.2% (inactive)	–
CO[C@@H]1CN(C)C(=O)c2ccc(NC(=O)c3ccc(-c4ccccc4)cc3)cc2OC[C@H](C)NC[C@H]1C	8.57% (inactive)	–
